Test results from patent US10669284B2, “Fused thiazolopyrimidine derivatives as MNKS inhibitors” (LIFEARC, priority 2015, dated 2020).
Read-outs that look alike come from different tables or passages of the source.

How the values were obtained:
Full-length human MNK1 = target: T1, Full-length human MNK1 (Homo sapiens, UniProt Q9BUB5, T385D); assay: MNK1 biochemical IC50 assay (Caliper Mobility Shift Assay)
T1 construct: GST (N); purchased Carna Biosciences 02-145; host or cells: baculovirus expression system

BMX = target: T2, BMX (Homo sapiens, UniProt P51813); assay: Kinase selectivity screen BMX; details: read-out: % inhibition of BMX
T2 sequence (P51813 1-675): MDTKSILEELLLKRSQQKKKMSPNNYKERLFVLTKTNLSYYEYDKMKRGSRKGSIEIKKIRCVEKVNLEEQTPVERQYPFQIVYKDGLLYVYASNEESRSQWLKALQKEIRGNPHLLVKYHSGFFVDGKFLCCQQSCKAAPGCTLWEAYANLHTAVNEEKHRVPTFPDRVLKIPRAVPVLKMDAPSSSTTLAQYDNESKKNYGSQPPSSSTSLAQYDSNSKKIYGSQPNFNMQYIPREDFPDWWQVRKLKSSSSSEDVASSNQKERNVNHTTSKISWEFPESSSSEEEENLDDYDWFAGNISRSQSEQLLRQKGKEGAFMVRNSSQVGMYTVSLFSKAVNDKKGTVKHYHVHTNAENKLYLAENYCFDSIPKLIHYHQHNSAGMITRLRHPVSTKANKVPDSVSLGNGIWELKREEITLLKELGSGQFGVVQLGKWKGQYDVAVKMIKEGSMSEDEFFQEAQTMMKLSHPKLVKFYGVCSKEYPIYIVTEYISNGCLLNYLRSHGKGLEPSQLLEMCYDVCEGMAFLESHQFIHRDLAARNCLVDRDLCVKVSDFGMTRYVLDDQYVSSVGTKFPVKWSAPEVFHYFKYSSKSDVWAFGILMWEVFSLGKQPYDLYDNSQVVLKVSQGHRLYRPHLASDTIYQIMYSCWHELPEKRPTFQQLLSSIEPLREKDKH

FES = FES (Homo sapiens, UniProt P07332); assay: Kinase selectivity screen FES; details: read-out: % inhibition of FES
Chain of FES (P07332 whole entry, species assumed): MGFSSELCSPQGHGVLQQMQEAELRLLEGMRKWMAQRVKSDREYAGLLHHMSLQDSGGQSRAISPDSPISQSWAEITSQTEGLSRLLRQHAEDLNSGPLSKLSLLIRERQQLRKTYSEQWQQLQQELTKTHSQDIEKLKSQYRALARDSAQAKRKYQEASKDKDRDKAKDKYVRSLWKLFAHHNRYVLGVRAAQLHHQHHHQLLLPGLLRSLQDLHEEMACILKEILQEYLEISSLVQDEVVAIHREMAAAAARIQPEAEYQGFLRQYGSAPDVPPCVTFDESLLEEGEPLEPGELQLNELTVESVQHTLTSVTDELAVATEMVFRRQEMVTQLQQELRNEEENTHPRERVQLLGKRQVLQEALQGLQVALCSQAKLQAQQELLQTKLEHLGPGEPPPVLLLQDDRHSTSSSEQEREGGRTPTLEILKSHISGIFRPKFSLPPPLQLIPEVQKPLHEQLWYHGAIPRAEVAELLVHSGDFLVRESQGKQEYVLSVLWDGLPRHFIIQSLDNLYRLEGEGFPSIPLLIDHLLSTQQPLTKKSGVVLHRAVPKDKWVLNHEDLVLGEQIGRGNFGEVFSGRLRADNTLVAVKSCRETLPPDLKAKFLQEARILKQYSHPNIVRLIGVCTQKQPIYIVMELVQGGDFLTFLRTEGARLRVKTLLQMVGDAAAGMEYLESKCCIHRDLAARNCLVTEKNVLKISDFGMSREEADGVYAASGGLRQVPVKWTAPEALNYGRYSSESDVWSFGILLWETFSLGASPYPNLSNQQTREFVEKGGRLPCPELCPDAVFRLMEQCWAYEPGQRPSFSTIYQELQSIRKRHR

RET = RET (Homo sapiens, UniProt P07949); assay: Kinase selectivity screen RET; details: read-out: % inhibition of RET
Chain of RET (P07949 29-1114, species assumed): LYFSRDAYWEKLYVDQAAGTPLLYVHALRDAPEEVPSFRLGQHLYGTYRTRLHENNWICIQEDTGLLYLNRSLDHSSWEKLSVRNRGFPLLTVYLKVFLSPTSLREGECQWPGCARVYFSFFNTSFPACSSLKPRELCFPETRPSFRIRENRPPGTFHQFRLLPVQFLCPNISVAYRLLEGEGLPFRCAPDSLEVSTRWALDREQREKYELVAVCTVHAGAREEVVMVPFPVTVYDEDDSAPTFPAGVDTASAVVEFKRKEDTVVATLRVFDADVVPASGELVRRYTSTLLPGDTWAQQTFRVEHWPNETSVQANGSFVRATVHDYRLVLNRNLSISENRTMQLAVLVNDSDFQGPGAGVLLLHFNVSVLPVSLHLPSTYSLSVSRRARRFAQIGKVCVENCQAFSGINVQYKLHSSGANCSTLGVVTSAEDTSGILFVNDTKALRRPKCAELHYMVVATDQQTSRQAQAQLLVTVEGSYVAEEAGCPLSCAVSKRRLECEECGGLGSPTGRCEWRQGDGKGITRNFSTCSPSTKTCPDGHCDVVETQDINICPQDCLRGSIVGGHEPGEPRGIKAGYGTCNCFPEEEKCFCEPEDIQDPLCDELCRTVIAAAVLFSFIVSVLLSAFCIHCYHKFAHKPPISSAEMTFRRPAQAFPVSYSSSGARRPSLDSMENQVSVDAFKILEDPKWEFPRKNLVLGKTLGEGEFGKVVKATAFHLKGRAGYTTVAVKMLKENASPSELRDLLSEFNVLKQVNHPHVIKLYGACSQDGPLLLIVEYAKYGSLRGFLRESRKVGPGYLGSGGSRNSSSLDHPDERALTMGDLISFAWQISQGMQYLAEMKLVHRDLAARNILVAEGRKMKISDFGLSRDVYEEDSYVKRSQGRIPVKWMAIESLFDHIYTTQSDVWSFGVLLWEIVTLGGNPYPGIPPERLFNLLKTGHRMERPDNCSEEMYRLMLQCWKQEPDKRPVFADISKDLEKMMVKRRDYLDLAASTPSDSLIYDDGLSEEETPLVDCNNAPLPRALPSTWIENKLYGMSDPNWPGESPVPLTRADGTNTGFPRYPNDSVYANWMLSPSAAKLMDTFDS

PAK1 = PAK1 (Homo sapiens, UniProt Q13153); assay: Kinase selectivity screen PAK1; details: read-out: % inhibition of PAK1
Chain of PAK1 (Q13153 whole entry): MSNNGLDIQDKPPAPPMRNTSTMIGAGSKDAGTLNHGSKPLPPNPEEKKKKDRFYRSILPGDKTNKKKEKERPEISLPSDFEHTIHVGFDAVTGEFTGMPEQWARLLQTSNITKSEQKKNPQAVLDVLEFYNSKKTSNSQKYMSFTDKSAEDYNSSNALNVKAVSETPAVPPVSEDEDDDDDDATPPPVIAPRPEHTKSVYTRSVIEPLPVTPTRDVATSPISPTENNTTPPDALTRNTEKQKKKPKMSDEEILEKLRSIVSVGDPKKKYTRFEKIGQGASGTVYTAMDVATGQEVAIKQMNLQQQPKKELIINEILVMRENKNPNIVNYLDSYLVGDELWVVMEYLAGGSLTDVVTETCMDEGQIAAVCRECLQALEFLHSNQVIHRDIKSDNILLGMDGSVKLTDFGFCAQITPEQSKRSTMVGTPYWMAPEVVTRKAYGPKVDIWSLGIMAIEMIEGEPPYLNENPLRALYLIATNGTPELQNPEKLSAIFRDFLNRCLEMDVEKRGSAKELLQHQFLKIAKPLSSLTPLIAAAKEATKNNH

ABL1 = ABL1 (Homo sapiens, UniProt P00519); assay: Kinase selectivity screen ABL1; details: read-out: % inhibition of ABL1
FGFR3 = FGFR3 (Homo sapiens, UniProt P22607); assay: Kinase selectivity screen FGFR3; details: read-out: % inhibition of FGFR3
CaMK1 = CaMK1 (Homo sapiens, UniProt Q14012); assay: Kinase selectivity screen CaMK1; details: read-out: % inhibition of CaMK1
Chain of CaMK1 (Q14012 whole entry): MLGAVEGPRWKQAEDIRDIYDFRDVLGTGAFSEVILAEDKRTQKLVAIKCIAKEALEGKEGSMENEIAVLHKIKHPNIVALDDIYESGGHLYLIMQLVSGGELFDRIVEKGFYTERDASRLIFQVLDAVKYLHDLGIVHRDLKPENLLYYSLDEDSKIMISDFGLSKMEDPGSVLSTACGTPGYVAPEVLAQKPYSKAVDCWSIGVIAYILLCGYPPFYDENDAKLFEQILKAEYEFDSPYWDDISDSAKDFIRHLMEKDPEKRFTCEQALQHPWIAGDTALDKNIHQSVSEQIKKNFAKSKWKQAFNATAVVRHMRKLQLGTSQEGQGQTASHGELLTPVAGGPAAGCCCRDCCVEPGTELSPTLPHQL

ROCK2 = ROCK2 (Homo sapiens, UniProt O75116); assay: Kinase selectivity screen ROCK2; details: read-out: % inhibition of ROCK2
Chain of ROCK2 (O75116 whole entry, species assumed): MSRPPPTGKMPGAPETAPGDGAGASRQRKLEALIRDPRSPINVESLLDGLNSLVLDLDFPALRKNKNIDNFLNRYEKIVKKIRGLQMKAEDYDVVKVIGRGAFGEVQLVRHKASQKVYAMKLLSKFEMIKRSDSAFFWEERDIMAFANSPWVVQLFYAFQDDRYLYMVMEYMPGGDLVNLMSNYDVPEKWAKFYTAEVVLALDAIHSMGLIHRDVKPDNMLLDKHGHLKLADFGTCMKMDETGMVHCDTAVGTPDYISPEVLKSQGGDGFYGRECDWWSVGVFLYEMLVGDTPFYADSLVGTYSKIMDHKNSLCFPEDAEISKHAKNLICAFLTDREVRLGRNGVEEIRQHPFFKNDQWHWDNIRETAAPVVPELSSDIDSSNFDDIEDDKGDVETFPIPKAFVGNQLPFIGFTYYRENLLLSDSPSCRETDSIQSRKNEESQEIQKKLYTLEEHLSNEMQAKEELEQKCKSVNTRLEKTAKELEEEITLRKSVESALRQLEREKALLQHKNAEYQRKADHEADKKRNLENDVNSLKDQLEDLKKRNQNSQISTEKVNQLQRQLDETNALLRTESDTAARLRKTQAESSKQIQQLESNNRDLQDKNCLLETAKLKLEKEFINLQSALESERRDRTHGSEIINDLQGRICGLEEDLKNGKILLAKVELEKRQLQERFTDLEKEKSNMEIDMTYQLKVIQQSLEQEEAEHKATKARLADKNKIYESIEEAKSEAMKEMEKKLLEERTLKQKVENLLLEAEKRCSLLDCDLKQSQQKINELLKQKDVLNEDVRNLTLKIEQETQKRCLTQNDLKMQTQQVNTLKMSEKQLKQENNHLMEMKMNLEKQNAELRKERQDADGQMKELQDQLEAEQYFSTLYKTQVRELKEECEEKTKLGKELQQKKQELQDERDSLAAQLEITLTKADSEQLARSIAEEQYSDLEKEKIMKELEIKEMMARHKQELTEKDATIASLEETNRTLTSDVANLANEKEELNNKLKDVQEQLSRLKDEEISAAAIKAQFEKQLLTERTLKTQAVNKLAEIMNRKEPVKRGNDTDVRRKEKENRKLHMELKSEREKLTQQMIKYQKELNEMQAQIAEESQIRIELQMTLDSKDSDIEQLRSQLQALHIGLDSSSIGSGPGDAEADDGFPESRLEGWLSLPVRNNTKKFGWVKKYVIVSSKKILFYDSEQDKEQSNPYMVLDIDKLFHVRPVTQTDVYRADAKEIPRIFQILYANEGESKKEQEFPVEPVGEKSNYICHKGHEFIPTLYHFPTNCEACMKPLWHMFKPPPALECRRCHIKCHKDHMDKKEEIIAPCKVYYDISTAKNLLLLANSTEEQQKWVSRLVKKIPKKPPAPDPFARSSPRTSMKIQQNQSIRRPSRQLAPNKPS

CHEK1 = target: T3, CHEK1 (Homo sapiens, UniProt O14757); assay: Kinase selectivity screen CHEK1; details: read-out: % inhibition of CHEK1
T3 sequence (O14757 1-476): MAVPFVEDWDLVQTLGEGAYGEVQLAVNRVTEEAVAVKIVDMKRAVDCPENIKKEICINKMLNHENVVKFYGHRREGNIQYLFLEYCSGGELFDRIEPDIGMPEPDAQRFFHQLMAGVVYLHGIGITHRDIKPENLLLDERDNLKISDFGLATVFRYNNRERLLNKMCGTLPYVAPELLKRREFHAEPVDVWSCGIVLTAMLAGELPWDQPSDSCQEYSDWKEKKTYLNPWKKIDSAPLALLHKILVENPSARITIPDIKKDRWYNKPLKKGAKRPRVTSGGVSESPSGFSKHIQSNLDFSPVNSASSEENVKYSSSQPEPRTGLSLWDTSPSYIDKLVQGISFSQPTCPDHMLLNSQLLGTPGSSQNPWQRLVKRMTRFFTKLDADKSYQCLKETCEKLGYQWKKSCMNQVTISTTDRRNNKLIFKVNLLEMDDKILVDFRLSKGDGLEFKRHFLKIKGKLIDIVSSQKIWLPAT

CAMK2B = CAMK2B (Homo sapiens, UniProt Q13554); assay: Kinase selectivity screen CAMK2B; details: read-out: % inhibition of CAMK2B
Chain of CAMK2B (Q13554 whole entry, species assumed): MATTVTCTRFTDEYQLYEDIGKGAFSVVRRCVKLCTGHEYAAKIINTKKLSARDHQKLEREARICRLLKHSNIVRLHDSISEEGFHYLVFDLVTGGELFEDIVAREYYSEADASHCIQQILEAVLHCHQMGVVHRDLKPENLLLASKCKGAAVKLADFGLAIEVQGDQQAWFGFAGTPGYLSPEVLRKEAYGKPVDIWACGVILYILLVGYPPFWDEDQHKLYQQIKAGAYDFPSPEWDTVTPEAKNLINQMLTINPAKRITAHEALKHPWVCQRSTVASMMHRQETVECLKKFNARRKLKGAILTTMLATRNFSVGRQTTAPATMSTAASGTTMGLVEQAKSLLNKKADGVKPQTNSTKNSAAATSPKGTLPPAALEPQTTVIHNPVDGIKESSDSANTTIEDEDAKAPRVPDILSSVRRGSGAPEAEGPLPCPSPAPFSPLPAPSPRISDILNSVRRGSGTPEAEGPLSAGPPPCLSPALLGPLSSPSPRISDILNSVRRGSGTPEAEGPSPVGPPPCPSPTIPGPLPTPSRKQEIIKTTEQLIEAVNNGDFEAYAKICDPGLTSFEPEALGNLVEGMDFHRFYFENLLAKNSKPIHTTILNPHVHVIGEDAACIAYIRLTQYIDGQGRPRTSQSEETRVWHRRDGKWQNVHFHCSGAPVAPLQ

[1] = read-out: P(IC50) MNK1 (converted)

| Structure (SMILES) | IC50 (Full-length human MNK1) [nM] | inhibition at 1 µM (BMX) [%] | inhibition at 1 µM (FES) [%] | inhibition at 1 µM (RET) [%] | inhibition at 1 µM (PAK1) [%] | inhibition at 1 µM (ABL1) [%] | inhibition at 1 µM (FGFR3) [%] | inhibition at 1 µM (CaMK1) [%] | inhibition at 1 µM (ROCK2) [%] | inhibition at 1 µM (CHEK1) [%] | inhibition at 1 µM (CAMK2B) [%] | IC50 (Full-length human MNK1; [1]) [nM] |
| --- | --- | --- | --- | --- | --- | --- | --- | --- | --- | --- | --- | --- |
| CC(C)Oc1cc(F)ccc1Nc1ncnc2sc(C(=O)NCC3CCNCC3)nc12 [Example 10, 7-(4-fluoro-2-isopropoxy-anilino)-N-(4-piperidylmethyl)thiazolo[5,4-d]pyrimidine-2-carboxamide] | 50.1 | 0 | 13 | 0 | 0 | 4 | 0 | 11 | 1 | 0 | 2 |  |
| CN(C)CCCNC(=O)c1nc2c(N3CCc4cc(F)ccc43)ncnc2s1 [Example 64, N-[3-(dimethylamino)propyl]-7-(5-fluoroindolin-1-yl)thiazolo[5,4-d]pyrimidine-2-carboxamide] |  | 6 | 1 | 0 | 0 | 4 | 3 | 18 | 18 | 35 | 57 | 2.51 |
| O=C(NCC1CCNCC1)c1nc2c(N3CCc4cc(F)ccc43)ncnc2s1 [Example 58, 7-(5-fluoroindolin-1-yl)-N-(4-piperidylmethyl)thiazolo[5,4-d]pyrimidine-2-carboxamide] |  | 0 | 16 | 0 | 9 | 6 | 0 | 11 | 8 | 6 | 17 | 5.01 |
